In patent US20150252048A1, “SUBSTITUTED N-(3-PYRIMIDIN-4-YL)PHENYL)ACRYLAMIDE ANALOGS AS TYROSINE RECEPTOR KINASE BTK INHIBITORS” (UNIVERSITY OF UTAH RESEARCH FOUNDATION, priority 2012, published 2015):
pIC50: −log10 of the molar value. “And” between values parts separate entries of the source, which are not always exact repeats. Identical values can stand only once. Like-named read-outs stand apart in the source and are kept apart here.

Columns and labels:
[1] = target: T1, recombinant full-length human BTK kinase (Homo sapiens, UniProt Q06187); experiment: BTK kinase assay: ADP generation assay (ADP-Glo); format: biochemical; settings: 60 nM BTK, MBP substrate, 60 min
T1 construct: recombinant full-length human BTK kinase with a (His)6 tag; (His)6; purchased Invitrogen Corporation, Carlsbad, Calif
Method: The primary assay for compound inhibitory activity was the ADP generation assay described herein. Test compounds were diluted to desired concentrations in kinase reaction buffer and briefly incubated with recombinant full-length human BTK kinase with a (His)6 tag (81.3 kDa; Invitrogen Corporation, Carlsbad, Calif.). The assay as described is based on volumes used in a standard 384 well format using solid, white-wall plates. The reaction was subsequently initiated by the addition of ATP and myelin basic protein (MBP) substrate (Millipore Corporation, Waltham, Mass.). Composition of the assay reaction mixture ([…]) was: 5% v/v DMSO, 60 nM BTK, 1.6 µM ATP, and 20 µM MBP substrate. After incubation at room temperature for 60 min, […] (Promega Corporation, Madison, Wis.) was added to each well and incubated for an additional 40 minutes. The reagent stopped the kinase reaction and depleted the unconsumed ATP. Kinase Detection reagent ([…]; Promega Corporation) was then added to each well. The Kinase Detection reagent comprises reagents to convert ADP to ATP and provide luciferase and luciferin to detect ATP. Luminescence was measured on an EnVision microplate reader (PerkinElmer). The amount of luminescence from each reaction is directly correlated with BTK kinase activity. Percent inhibition and IC50 values were calculated by comparing enzyme activity in drug-treated wells to the appropriate controls.
IC50 values are determined using GraphPad Prism 5 software. The data were entered as an X-Y plot into the software as percent inhibition for each concentration of the drug. The concentration values of the drug were log transformed and the nonlinear regression was carried out using the “sigmoidal dose-response (variable slope)” option within the GraphPad software to model the data and calculate IC50 values. The IC50 values reported are the concentration of drug at which 50% inhibition was reached.
Activity (IC50) was determined in the BTK assays describe herein below, i.e. either the ADP generation assay and/or the time-resolved FRET assay, and the data are shown in Table III. The compound number corresponds to the compound numbers used in Table I. In the table below, “ADP Assay” refers to the assay which measures production of ADP resulting from use of ATP by the kinase; and “HTRF Assay” refers to the time resolved-FRET kinase assay described in the examples. Multiple values in a given column indicate the results of more than one assay for the given compound. Representative data of the type used to determine the IC50 values for the ADP assay in Table III are shown in FIG. 8 for compounds 3, 4, and 5.

Cytochrome P450 1A2 = target: T2, Cytochrome P450 1A2 (Homo sapiens, UniProt P05177); experiment: Cytochrome P450 inhibition (P450 BACULOSOMES, Vivid substrates); format: in vitro ADME; settings: 10-point titration, duplicate; read-out: CYP Activity 1A2 IC50
T2 construct: purchased Invitrogen
T2 sequence (P05177 1-516): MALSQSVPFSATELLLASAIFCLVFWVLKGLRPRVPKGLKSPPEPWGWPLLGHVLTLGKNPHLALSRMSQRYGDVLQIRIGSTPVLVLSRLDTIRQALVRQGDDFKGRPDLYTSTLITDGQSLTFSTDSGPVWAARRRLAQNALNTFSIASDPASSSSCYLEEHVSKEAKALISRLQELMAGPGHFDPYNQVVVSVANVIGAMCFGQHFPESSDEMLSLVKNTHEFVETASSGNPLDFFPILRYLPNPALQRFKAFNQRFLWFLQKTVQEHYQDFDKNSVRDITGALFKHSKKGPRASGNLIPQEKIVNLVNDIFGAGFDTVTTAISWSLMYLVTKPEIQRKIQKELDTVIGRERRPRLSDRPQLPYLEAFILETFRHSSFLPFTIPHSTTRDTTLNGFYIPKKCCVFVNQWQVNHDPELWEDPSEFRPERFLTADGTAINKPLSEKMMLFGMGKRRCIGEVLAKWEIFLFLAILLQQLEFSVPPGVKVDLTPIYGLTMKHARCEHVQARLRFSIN
Method: (§1) A number of ADME properties were determined for a representative disclosed compound, compound 3 (N-(3-(6-((3-morpholinophenyl)amino)-1H-pyrazolo[3,4-d]pyrimidin-4-yl)phenyl)acrylamide), which corresponds to compound 3 in Table I. Drug inhibition of cytochrome P450 enzymes is a common cause of drug-drug intereaction issues in the clinic. The compound was tested in assays for commonly screened Cytochrome P450s, specifically the 1A2, 2C9, 2C19, 2D6, and 3A4 isoforms. The IC50 determinations were performed in duplicate using 10-point titrations of test compound using Invitrogen P450 BACULOSOMES® reagents and Vivid® CyP450 Screening substrates.

Cytochrome P450 2C19 = target: T3, Cytochrome P450 2C19 (Homo sapiens, UniProt P33261); experiment: as above; format: in vitro ADME; settings: 10-point titration, duplicate; read-out: CYP Activity 2C19 IC50
T3 construct: purchased Invitrogen
Method: as §1

Cytochrome P450 2C9 = target: T4, Cytochrome P450 2C9 (Homo sapiens, UniProt P11712); experiment: as above; format: in vitro ADME; settings: 10-point titration, duplicate; read-out: CYP Activity 2C9 IC50
T4 construct: purchased Invitrogen
Method: as §1

Cytochrome P450 2D6 = target: T5, Cytochrome P450 2D6 (Homo sapiens, UniProt P10635); experiment: as above; format: in vitro ADME; settings: 10-point titration, duplicate; read-out: CYP Activity 2D6 IC50
T5 construct: purchased Invitrogen
Method: as §1

Cytochrome P450 3A4 = target: T6, Cytochrome P450 3A4 (Homo sapiens, UniProt P08684); experiment: as above; format: in vitro ADME
T6 construct: purchased Invitrogen
Method: as §1

HERG channel = target: T7, HERG channel (Homo sapiens, UniProt Q12809); experiment: Predictor hERG Fluorescence Polarization Assay; format: binding; settings: membrane preparation with overexpressed HERG channels, 10-point, duplicate
T7 construct: purchased Invitrogen; host or cells: membrane preparation with overexpressed HERG channels
Method: The activity of a representative disclosed compound, compound 3 (N-(3-(6-((3-morpholinophenyl)amino)-1H-pyrazolo[3,4-d]pyrimidin-4-yl)phenyl)acrylamide), was evaluated in a HERG channel assay. Briefly, the compounds were assessed using the Invitrogen Predictor™ hERG Fluorescence Polarization Assay with excitation at 530 nm and emission at 580 nm using a membrane preparation with overexpressed HERG channels. The compound was tested in a 10-point dose response curves in duplicate and using E-4031 (N-[4-[[1-[2-(6-Methyl-2-pyridinyl)ethyl]-4-piperidinyl]carbonyl]phenyl]methanesulfonamide dihydrochloride), a known HERG channel inhibitor, as an assay positive control. The data are shown in FIG. 6, and the figure showns the average inhibition versus the compound.

T1 sequence (Q06187 whole entry): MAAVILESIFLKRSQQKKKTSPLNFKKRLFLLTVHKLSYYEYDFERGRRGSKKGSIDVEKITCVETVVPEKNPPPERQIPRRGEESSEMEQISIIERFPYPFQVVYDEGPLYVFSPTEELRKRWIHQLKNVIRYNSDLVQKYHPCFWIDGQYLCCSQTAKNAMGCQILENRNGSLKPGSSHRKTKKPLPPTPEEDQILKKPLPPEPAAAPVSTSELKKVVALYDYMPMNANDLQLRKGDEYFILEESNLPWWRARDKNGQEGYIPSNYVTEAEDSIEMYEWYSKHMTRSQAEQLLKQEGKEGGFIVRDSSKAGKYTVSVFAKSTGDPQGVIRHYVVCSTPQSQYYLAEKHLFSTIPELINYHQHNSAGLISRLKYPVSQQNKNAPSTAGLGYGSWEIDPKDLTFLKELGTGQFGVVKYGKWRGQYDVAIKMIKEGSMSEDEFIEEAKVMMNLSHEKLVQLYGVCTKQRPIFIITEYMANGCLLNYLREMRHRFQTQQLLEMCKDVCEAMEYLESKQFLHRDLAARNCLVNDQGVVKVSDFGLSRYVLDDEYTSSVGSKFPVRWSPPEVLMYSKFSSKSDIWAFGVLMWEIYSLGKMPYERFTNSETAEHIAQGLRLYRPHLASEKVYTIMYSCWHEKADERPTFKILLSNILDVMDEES
T6 sequence (P08684 whole entry): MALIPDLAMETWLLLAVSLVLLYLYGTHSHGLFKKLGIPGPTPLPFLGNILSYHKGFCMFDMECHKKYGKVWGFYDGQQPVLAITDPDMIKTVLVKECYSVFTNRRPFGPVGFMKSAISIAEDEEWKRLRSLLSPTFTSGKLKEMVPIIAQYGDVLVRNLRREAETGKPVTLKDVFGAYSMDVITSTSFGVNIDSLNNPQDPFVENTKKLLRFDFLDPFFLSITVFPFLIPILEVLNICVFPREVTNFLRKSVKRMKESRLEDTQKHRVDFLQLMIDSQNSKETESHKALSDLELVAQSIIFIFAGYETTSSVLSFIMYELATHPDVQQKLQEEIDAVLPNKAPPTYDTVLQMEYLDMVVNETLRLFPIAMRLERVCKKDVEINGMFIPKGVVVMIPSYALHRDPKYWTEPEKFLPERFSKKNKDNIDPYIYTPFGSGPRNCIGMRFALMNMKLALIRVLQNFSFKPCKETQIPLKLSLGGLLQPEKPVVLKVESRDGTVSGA
T5 sequence (P10635 whole entry): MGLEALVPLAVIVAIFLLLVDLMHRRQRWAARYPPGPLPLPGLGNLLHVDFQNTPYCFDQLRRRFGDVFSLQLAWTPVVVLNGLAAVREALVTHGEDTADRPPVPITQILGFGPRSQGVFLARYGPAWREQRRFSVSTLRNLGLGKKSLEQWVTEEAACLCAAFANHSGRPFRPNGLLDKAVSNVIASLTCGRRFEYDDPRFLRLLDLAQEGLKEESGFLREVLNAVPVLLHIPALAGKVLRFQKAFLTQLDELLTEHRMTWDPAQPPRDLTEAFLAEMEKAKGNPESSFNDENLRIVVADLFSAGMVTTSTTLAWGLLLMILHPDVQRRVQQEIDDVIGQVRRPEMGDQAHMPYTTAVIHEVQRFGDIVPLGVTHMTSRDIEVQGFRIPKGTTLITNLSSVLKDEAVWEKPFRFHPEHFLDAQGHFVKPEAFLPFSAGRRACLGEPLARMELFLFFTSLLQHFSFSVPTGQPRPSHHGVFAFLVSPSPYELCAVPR
T4 sequence (P11712 whole entry): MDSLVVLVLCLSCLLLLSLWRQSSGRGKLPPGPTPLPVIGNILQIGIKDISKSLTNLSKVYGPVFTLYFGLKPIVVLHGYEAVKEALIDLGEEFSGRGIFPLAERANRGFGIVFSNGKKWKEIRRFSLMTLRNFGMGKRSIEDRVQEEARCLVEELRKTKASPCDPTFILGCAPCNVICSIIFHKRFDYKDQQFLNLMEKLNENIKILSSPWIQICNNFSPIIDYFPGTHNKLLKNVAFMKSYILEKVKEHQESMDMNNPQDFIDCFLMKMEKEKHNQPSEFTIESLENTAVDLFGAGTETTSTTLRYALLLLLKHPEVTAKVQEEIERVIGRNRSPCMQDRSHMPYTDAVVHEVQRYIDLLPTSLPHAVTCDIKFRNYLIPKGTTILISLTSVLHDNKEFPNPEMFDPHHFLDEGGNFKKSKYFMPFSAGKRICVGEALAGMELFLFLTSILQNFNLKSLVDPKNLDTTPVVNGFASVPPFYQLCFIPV
T7 sequence (Q12809 whole entry): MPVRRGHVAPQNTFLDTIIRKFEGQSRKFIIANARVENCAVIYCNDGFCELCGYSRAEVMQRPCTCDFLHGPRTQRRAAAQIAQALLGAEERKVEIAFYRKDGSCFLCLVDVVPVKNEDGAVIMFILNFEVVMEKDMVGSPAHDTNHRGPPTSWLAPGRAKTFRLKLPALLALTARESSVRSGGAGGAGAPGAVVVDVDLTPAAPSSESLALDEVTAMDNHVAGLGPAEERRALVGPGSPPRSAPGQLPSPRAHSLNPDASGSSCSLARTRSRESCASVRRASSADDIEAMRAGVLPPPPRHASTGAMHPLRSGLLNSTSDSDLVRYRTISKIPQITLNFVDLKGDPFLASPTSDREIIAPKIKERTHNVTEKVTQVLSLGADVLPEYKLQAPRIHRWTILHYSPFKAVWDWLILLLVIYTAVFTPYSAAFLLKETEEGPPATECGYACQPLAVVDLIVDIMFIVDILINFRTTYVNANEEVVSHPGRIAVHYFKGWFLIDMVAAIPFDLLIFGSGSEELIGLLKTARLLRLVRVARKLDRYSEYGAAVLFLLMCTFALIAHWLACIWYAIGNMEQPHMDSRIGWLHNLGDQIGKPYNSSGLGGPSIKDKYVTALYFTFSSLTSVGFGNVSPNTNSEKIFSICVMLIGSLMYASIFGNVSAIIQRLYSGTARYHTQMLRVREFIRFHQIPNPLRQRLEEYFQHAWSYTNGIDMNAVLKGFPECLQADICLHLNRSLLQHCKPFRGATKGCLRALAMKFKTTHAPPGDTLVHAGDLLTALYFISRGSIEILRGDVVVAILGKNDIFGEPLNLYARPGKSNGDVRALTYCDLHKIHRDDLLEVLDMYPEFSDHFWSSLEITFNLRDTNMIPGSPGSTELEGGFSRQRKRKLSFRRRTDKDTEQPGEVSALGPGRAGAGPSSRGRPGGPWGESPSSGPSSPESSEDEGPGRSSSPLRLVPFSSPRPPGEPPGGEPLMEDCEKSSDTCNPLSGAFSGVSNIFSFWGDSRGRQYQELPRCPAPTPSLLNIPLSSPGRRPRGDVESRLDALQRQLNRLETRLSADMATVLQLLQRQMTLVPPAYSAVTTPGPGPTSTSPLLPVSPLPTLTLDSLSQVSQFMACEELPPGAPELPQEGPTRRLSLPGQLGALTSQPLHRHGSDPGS
T3 sequence (P33261 whole entry): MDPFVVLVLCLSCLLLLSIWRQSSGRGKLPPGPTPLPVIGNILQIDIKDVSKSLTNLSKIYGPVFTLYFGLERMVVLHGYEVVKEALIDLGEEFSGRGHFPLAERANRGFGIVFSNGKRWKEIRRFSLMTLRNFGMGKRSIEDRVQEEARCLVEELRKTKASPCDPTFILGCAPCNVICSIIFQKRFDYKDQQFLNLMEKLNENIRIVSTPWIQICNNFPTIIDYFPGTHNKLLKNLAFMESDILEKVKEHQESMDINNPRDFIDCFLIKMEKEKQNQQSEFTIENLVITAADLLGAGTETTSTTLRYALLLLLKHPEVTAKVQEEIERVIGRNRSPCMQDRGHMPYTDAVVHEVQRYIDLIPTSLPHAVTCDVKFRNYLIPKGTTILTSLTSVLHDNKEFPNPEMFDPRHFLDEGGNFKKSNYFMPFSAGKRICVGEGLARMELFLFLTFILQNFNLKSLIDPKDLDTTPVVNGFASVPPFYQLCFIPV

Q: `C=CC(=O)Nc1cccc(-c2nc(Nc3cccc(N4CCOCC4)c3)nc3[nH]ncc23)c1` [Compound 3, N-(3-(6-((3-morpholinophenyl)amino)-1H-pyrazolo[3,4-d]pyrimidin-4-yl)phenyl)acrylamide] was tested. Which pIC50 [1] did it give?
A: 8.30 and 8.22 and 8.10

Q: And the pIC50 (Cytochrome P450 1A2)?
A: ≤ 5.00

Q: And the pIC50 (Cytochrome P450 2C19)?
A: 5.58

Q: What about the pIC50 (Cytochrome P450 2C9) of the same compound?
A: 5.66

Q: And the pIC50 (Cytochrome P450 2D6)?
A: ≤ 5.00

Q: What about the pIC50 (Cytochrome P450 3A4; BOMCC substrate, read-out: CYP Activity 3A4/BOMCC IC50) of the same compound?
A: 6.17

Q: What about the pIC50 (Cytochrome P450 3A4; DBOMF substrate, read-out: CYP Activity 3A4/DBOMF IC50) of the same compound?
A: 5.69

Q: What about the pIC50 (HERG channel) of the same compound?
A: < 5.00
